# Results reported in patent publication US6916823B2, “Method of treatment of dopamine-related dysfunction” (Purdue Research Foundation, priority 2001, dated 2005).
# Read-outs that look alike come from different tables or passages of the source.
# Experiments:
# [1] = system: D1 and D2 dopamine receptors; assay: D1:D2 selectivity; assay type: binding
# [2] = system: unilateral 6-OHDA rats; assay: rat unilateral 6-OHDA rotation model of Parkinson's disease; assay type: in vivo; settings: for increase in rotation relative to vehicle: 10 h; for rotation during continuous administration: osmotic minipump s.c.
# Text: Summary. In the rat unilateral 6-hydroxydopamine (6-OHDA) rotation model of Parkinson's disease, 6-OHDA is infused unilaterally into the medial forebrain bundle, the substantia nigra, or the striatum. […] When challenged with direct-acting dopamine receptor agonists, unilateral 6-OHDA rats turn contralaterally (away from the side of the lesion) because of the increased sensitivity of the postsynaptic dopamine receptors on the lesioned side. The experiments described below examine tolerance induced by the full D1 agonist, dinapsoline, using the 6-OHDA model.
# Subjects. Adult male Sprague-Dawley Rats (Hilltop Laboratories, Chatsworth, Calif.), weighing between 280 and 320 grams, were used as subjects. Animals were housed individually with food and water available ad libitum, except as noted below. The light:dark schedule was 12 h:12 h, and testing was performed during the light cycle. All methods adhere to the guidelines in the Guide for the Care and Use of Experimental Animals published by the National Institutes of Health (Pub. 85-23, 1985).
# Surgery. Rats were pretreated with 25 mg/kg desipramine (s.c.) approximately 30 minutes before surgery. Rats were anesthetized by inhalation of isoflurane (1.5 to 4.0%) and placed in a stereotaxic apparatus. An infusion cannula was placed in the medial forebrain bundle at the coordinates A.P. −3.8 mm, M.L. −1.5 mm, and D.V. −3.8 mm relative to bregma according to the atlas of Paxinos and Watson (1986). Ten micrograms of 6-OHDA (6-hydroxydopamine; Sigma Chemical Co., St. Louis, Mo.) in a volume of 4 μL was infused at a rate of 0.5 μL/min in a vehicle of 0.01% ascorbate. After a 14-day recovery period, rats were prescreened for rotation in response to d-amphetamine (5 mg/kg) and to apomorphine (0.3 mg/kg) 1 week later. Animals that responded to both d-amphetamine (>800 rotations in 3 h) and apomorphine (>100 rotations in 1 h) were retained for further study.
# Testing of compounds began on day 28 postsurgery in each case. A new group of 6-OHDA-lesioned rats was used for each new study. In some studies, rats were implanted with a subcutaneous 14-day osmotic minipump (model 2 ML2, Alza, Palo Alto, Calif.) with a flow rate of 5.0 μL/h. The rats were re-anesthetized with 1.5 to 4% isoflurane, a small incision was made on the back of the neck, and the minipump was placed subcutaneously in the cavity. The incision was closed with sterile wound clips. Before implantation, minipumps were incubated in sterile saline (37° C.) to ensure outflow at the time of implantation. The minipumps were used to administer dinapsoline, or vehicle (50% dimethyl sulfoxide (DMSO), 12.5% ascorbic acid).
# Apparatus, Procedure, and Statistics. Rats were tested for rotation in automated rotation chambers (Rotoscan, Accuscan, Columbus, Ohio). The apparatus consisted of a cylindrical Plexiglas chamber 30 cm in diameter in which the animal is fitted to a harness attached to a flexible rod connected to a rotating microswitch. Animals were allowed to habituate to chambers for 30 minutes before drug treatment in each case. Data were collected for 1 to 12 h after injection, using 15 minute time bins. Treatments were compared using one-way and repeated measures of analysis of variance (ANOVA), as appropriate; post hoc analysis was performed with Dunnett's test.
# Acute Dinapsoline Administration. Beginning 1 week after the screening dose with apomorphine, subjects (n=12) were tested once per week with dinapsoline (0.02, 0.2, or 2 mg/kg) or vehicle (s.c.) using a counterbalanced design, and rotation behavior was monitored for 10 h. After the final day of testing, rats were euthanized and brains were removed for subsequent assessment of dopamine depletion. In the oral dosing experiments, a separate group of subjects (n=8) received dinapsoline (0.02, 0.2, or 2 mg/kg) or vehicle once per week using a counterbalanced design. Rats were fasted for 16 h before dosing with oral gavage, and rotation behavior was monitored for 10 h.
# [3] = system: D2 receptors; assay: D2 agonist properties
# [4] = system: unilateral 6-OHDA rats; settings: cited from earlier work; for efficacy in Parkinson's disease models: e.g. unilateral 6-OHDA-lesion rodent model
# [5] = target: T1, D1 receptors (Rattus norvegicus, UniProt P18901); assay: cAMP production in rat striatum; assay type: biochemical; settings: for agonist activity (intrinsic activity): rat striatum / rat striatal membranes, relative to dopamine
# T1 construct: increase cAMP production in rat striatum and C-6-mD1 cells; from tissue; host or cells: rat striatum (striatal membranes)
# T1 sequence (P18901 whole entry): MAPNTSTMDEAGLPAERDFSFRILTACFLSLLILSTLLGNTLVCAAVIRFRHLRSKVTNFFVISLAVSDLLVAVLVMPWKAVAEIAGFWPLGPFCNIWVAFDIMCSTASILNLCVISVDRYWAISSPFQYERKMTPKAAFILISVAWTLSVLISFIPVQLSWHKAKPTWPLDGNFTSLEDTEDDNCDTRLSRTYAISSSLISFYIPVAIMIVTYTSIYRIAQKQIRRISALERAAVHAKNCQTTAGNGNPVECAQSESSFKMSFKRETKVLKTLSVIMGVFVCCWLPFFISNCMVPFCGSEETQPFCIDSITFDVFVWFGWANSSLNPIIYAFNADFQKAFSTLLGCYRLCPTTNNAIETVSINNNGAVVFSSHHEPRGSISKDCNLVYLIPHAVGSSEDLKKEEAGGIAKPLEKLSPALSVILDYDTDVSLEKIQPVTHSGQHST
# [6] = target: T2, cloned expressed primate D1A receptors (Macaca mulatta, UniProt O77680); assay: cAMP production in C-6-mD1 cells; assay type: cell-based; settings: for agonist activity (intrinsic activity): C-6-mD1 cells / cloned expressed primate D1A receptors, relative to dopamine
# T2 construct: expressed in transfected cells; host or cells: C-6 cells (C-6-mD1)
# T2 sequence (O77680 whole entry): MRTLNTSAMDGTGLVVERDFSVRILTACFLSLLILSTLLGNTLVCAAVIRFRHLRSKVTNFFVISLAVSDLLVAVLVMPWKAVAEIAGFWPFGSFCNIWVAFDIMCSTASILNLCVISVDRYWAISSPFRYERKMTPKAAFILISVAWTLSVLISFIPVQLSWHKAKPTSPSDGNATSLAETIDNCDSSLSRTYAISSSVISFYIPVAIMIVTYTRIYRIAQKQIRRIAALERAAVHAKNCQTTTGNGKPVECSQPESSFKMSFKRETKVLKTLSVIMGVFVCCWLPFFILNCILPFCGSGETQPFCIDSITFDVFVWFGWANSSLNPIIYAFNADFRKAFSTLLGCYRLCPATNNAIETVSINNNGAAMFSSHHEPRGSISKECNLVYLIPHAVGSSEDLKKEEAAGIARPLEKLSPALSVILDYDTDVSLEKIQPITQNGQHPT
# [7] = in vivo; cited from earlier work
# [8] = target: T3, rat striatal D1 receptors (Rattus norvegicus, UniProt P18901); assay: binding affinity to D1 receptors, competition with SCH23390
# T3 construct: increase cAMP production in rat striatum and C-6-mD1 cells; from tissue; host or cells: rat striatum (striatal membranes)
# T3 sequence (P18901 whole entry): as the sequence (P18901 whole entry) above
# Text: Experiments have been conducted to determine the binding affinity of dinoxyline to D1 receptors.
# [9] = A-77636 0.3 mg/kg s.c. alone, 3 h
smiles,measurement,setting,value
Oc1ccc2c(c1O)Cc1cccc3c1[C@H]2CNC3 [dinapsoline],D1:D2 selectivity,[1],five-fold
same,increase in rotation relative to vehicle,[2]; 0.02 mg/kg s.c.,but not at 0.02 mg/kg
same,duration of rotation,[2]; 0.2 mg/kg s.c.,about 5 h
same,increase in rotation relative to vehicle,[2]; 0.2 mg/kg s.c.,Statistically significant increases
same,duration of rotation,[2]; 2 mg/kg oral,7 h
same,increase in rotation versus baseline,[2]; 2 mg/kg oral,significantly different from baseline
same,change in rotational response over time,"[2]; 2 mg/kg s.c. once daily, 14 days",significant increase in response over time
same,behavioral tolerance,"[2]; 2 mg/kg s.c. once or twice daily, 14 days",no evidence for behavioral tolerance
same,change in rotational response over time,"[2]; 2 mg/kg s.c. twice daily, 14 days",significant increase in response over time
same,increase in rotation relative to vehicle,[2]; 2.0 mg/kg s.c.,Statistically significant increases
same,rotational behavior (cumulative rotation over 10 h),"[2]; acute 0.02, 0.2, 2 mg/kg s.c.","robust, dose-dependent rotational behavior"
same,rotation (cumulative over 10 h),"[2]; acute oral 0.02, 0.2, 2 mg/kg, response not dose-dependent",robust rotation
same,rotation after challenge dose 0.2 mg/kg s.c. on day 14,[2]; after 0.6 mg/kg/day by minipump,no rotation
same,rotation after challenge dose 0.2 mg/kg s.c. on day 14,[2]; after 6 mg/kg/day by minipump,no rotation
same,difference between groups on dinapsoline-alone challenge,"[2]; day 7, after 6 days dinapsoline with or without raclopride",no difference was observed
same,rotation during continuous administration,[2]; highest dose (6 mg/kg/day),brief behavioral response to which complete tolerance developed by 24 h
same,rotation during continuous administration,"[2]; lower doses (0.006, 0.06, 0.6 mg/kg/day)",no evidence of rotation
same,D2 agonist properties,[3],some D2 agonist properties
same,efficacy in Parkinson's disease models,[4],efficacious
"CN1CCc2cc(Cl)c(O)cc2[C@@H](c2ccccc2)C1 [SCH-23390, reference compound]",duration of action,[2]; in our assay,approximately 3 h
"CCN1CCC[C@H]1CNC(=O)c1c(O)c(Cl)cc(Cl)c1OC [raclopride, reference compound]",effect of daily coadministration on rotational response to dinapsoline,"[2]; raclopride 2 mg/kg s.c. with dinapsoline 2 mg/kg s.c., days 1 through 6",no significant difference
same,effect of antagonist pretreatment on rotational response to dinapsoline,"[2]; raclopride 2 mg/kg s.c., dinapsoline 0.2 mg/kg s.c., 3 h",did not reduce
same,effect of antagonist pretreatment on rotational response to dinapsoline,"[2]; raclopride 2 mg/kg s.c., dinapsoline 2 mg/kg s.c., 3 h",did not reduce
same,effect on rotation produced by quinpirole,"[2]; raclopride 2 mg/kg s.c., quinpirole 0.25 mg/kg s.c., data not shown",blocked completely
"Oc1cc2c(cc1O)[C@H]1c3ccccc3CN[C@@H]1CC2 (stereo in doubt) [dihydrexidine, (+)-trans-10,11-dihydroxy-5,6,6a,7,8,12b-hexahydrobenzo[a]phenanthridine]",agonist activity (intrinsic activity),[5],full agonist
same,agonist activity (intrinsic activity),[6],full agonist
same,D1:D2 selectivity,[1],ten-fold
same,D2 agonist properties,[3],some D2 agonist properties
same,efficacy in Parkinson's disease models,[4],efficacious
"Oc1cc2c(cc1O)C(c1ccccc1)CNCC2 (single isomer, unassigned; (+)) [(+)-SKF-38393, reference compound]",agonist activity (intrinsic activity),[6],partial agonist
"NC[C@@H]1O[C@H](C23CC4CC(CC(C4)C2)C3)Cc2c1ccc(O)c2O [Compound A-77636, reference compound]",D1:D2 selectivity,[1],more strongly D1 selective than dinapsoline
same,duration of rotation,[2]; 1 mg/kg s.c.,approximately 18 h
same,behavioral tolerance,"[2]; 1 mg/kg s.c. once daily for 14 days, 3 h rotation",dramatic behavioral tolerance
same,rotation on second day of dosing,"[2]; 1 mg/kg s.c. once daily, day 2 vs day 1",significantly less rotation than on the first day
same,amount of rotation on fourth day of dosing,"[2]; 1 mg/kg s.c. once daily, day 4, complete tolerance",no greater than that seen with vehicle
same,rotation in naive animals,"[2]; 1 mg/kg s.c., first day",robust rotation
same,tolerance on day 3 challenge,[2]; A-77636 0.3 mg/kg s.c. alone after 2 days A-77636 with or without quinpirole,equal tolerance in both groups
same,rotational response day 1,[2]; [9],maximal rotational response
same,tolerance by day 2,[2]; [9],significant tolerance
same,duration of action,"[4]; Asin and Wirtshafter, 1993",18 h
same,plasma half-life,[7],> 6 h
"Br.Oc1ccc2c(c1O)Oc1cccc3c1C2CNC3 (racemic) [dinoxyline, (±)-8,9-dihydroxy-1,2,3,11b-tetrahydrochromeno[4,3,2-de]isoquinoline hydrobromide]",affinity for dopamine D1 receptors labeled with [3H]SCH23390,[8]; compared with dihydrexidine,high affinity
same,nH of competition curve,[8]; competition with SCH23390,ca. 0.7
same,Ki,"[8]; rat striatal D1 receptors, read-out: K0.5 (affinity)",< 5 nM
same,agonist activity (intrinsic activity),[5]; hydrobromide,full agonist activity
same,EC50,"[5]; rat striatum, read-out: EC50 in stimulating synthesis of cAMP via D1 receptors",< 30 nM
same,agonist activity (intrinsic activity),[6]; hydrobromide,full agonist activity
same,EC50,"[6]; C-6-mD1 cells, read-out: EC50 in stimulating synthesis of cAMP via D1 receptors",< 30 nM
same,D1:D2 selectivity,[1],equally high affinity for both types of receptors
same,D2 agonist properties,[3],some D2 agonist properties
same,efficacy in Parkinson's disease models,[4],efficacious
